Patent US7759101B2, “Ginsenoside glycosidases hydrolyzing ginsenoside sugar moieties and uses thereof” (priority 2000, dated 2010)

Test system: ginsenoside glycosidases from A. niger
Test: Hydrolysis of ginsenosides with crude ginsenoside glycosidases from A. niger, products measured by TLC
Type: biochemical, Aspergillus niger
Experimental: Aspergillus niger FFCCDL-48 g was cultured in a medium containing 1% ginseng extracts and 3% wheat bran extracts at 30° C. for 54 hours. Cells were removed by centrifugation, after which (NH4)2SO4 powder was added to 2000 ml of the cell-free supernatant with stirring to 65% saturation. The solution was stored overnight at 4° C. and precipitated proteins were collected by centrifugation, resuspended in 80 ml of distilled water and dialyzed against 0.01M acetate buffer pH 5. Insolubles were removed by centrifugation, and the solution was adjusted to 200 ml with 0.01 M acetate buffer pH 5. The crude enzyme solution may be used to hydrolyze ginsenosides or to purify the enzymes.
100 mg each of ginsenosides Rb1, Rb2, Rc and Rd and 10 mg of ginsenoside Rg3 were dissolved in separate tubes containing 10 ml of 0.01M acetate buffer pH 5. 10 ml of the crude enzyme solution obtained in 1.1 was added to each tube and allowed to react at 30° C. for 18 hours. Then 10 ml of n-butanol was added to stop the reactions. The products were measured by thin layer chromatography (TLC) (Silica gel 60-F254, Merck; chloroform:methanol:water 70:30:5).
Experiments were carried out to explore the effects of temperature, pH, metal ions and reaction time on the enzyme reaction, in order to further characterize the enzymes.
100 mg of ginsenoside Rb1 was used in a reaction under the conditions as described in 1.2 and the effect of temperature was shown in Table 2.

[1] = Rb1 0.5%, pH 4.0, 30° C., 18 hours
[2] = Rb1 0.5%, pH 5.0, 30° C., 18 hours
[3] = Rb1 0.5%, pH 6.0, 30° C., 18 hours
[4] = Rb1 0.5%, pH 7.0, 30° C., 18 hours
[5] = Rb1 0.5%, pH 8.0, 30° C., 18 hours
[6] = Rb1 0.5%, reaction time 1 hours, pH 5, 30° C.
[7] = Rb1 0.5%, reaction time 4 hours, pH 5, 30° C.
[8] = Rb1 0.5%, reaction time 8 hours, pH 5, 30° C.
[9] = Rb1 0.5%, reaction time 12 hours, pH 5, 30° C.
[10] = Rb1 0.5%, reaction time 18 hours, pH 5, 30° C.
[11] = Rb1 0.5%, reaction time 24 hours, pH 5, 30° C.
[12] = Rb1 0.5%, reaction time 30 hours, pH 5, 30° C.
[13] = Rb1 0.5%, reaction time 36 hours, pH 5, 30° C.

CC(C)=CCC[C@](C)(O[C@@H]1O[C@H](CO[C@@H]2O[C@H](CO)[C@@H](O)[C@H](O)[C@H]2O)[C@@H](O)[C@H](O)[C@H]1O)[C@H]1CC[C@]2(C)[C@@H]1[C@H](O)C[C@@H]1[C@@]3(C)CC[C@H](O[C@@H]4O[C@H](CO)[C@@H](O)[C@H](O)[C@H]4O[C@@H]4O[C@H](CO)[C@@H](O)[C@H](O)[C@H]4O)C(C)(C)[C@@H]3CC[C@]12C [Rb1, ginsenoside Rb1]
Percentage of C—K in the reaction product [1]: 39% | Percentage of F2 in the reaction product [1]: 43% | Percentage of Rb1 in the reaction product [1]: 1% | Percentage of Rd in the reaction product [1]: 10% | Percentage of Rh2 in the reaction product [1]: 7% | Percentage of aglycone in the reaction product [1]: 5% | Percentage of C—K in the reaction product [2]: 16% | Percentage of F2 in the reaction product [2]: 63% | Percentage of Rd in the reaction product [2]: 10% | Percentage of Rh2 in the reaction product [2]: 5% | Percentage of aglycone in the reaction product [2]: 5% | Percentage of C—K in the reaction product [3]: 21% | Percentage of F2 in the reaction product [3]: 56% | Percentage of Rd in the reaction product [3]: 15% | Percentage of Rh2 in the reaction product [3]: 4% | Percentage of aglycone in the reaction product [3]: 4% | Percentage of C—K in the reaction product [4]: 6% | Percentage of F2 in the reaction product [4]: 41% | Percentage of Rb1 in the reaction product [4]: 10% | Percentage of Rd in the reaction product [4]: 41% | Percentage of Rg3 in the reaction product [4]: 2% | Percentage of Rh2 in the reaction product [4]: 2% | Percentage of aglycone in the reaction product [4]: 2% | Percentage of C—K in the reaction product [5]: 6% | Percentage of F2 in the reaction product [5]: 36% | Percentage of Rb1 in the reaction product [5]: 20% | Percentage of Rd in the reaction product [5]: 45% | Percentage of Rg3 in the reaction product [5]: 3% | Percentage of Rb1 in the reaction product [6]: 38% | Percentage of Rd in the reaction product [6]: 62% | Percentage of F2 in the reaction product [7]: 10% | Percentage of Rb1 in the reaction product [7]: 12% | Percentage of Rd in the reaction product [7]: 72% | Percentage of C—K in the reaction product [8]: 2% | Percentage of F2 in the reaction product [8]: 38% | Percentage of Rb1 in the reaction product [8]: 8% | Percentage of Rd in the reaction product [8]: 51% | Percentage of C—K in the reaction product [9]: 6% | Percentage of F2 in the reaction product [9]: 54% | Percentage of Rb1 in the reaction product [9]: 6% | Percentage of Rd in the reaction product [9]: 30% | Percentage of Rh2 in the reaction product [9]: 2% | Percentage of aglycone in the reaction product [9]: 2% | Percentage of C—K in the reaction product [10]: 16% | Percentage of F2 in the reaction product [10]: 63% | Percentage of Rd in the reaction product [10]: 10% | Percentage of Rh2 in the reaction product [10]: 5% | Percentage of aglycone in the reaction product [10]: 5% | Percentage of C—K in the reaction product [11]: 24% | Percentage of F2 in the reaction product [11]: 60% | Percentage of Rd in the reaction product [11]: 8% | Percentage of Rh2 in the reaction product [11]: 4% | Percentage of aglycone in the reaction product [11]: 4% | Percentage of C—K in the reaction product [12]: 44% | Percentage of F2 in the reaction product [12]: 40% | Percentage of Rd in the reaction product [12]: 5% | Percentage of Rg3 in the reaction product [12]: 2% | Percentage of Rh2 in the reaction product [12]: 6% | Percentage of aglycone in the reaction product [12]: 3% | Percentage of C—K in the reaction product [13]: 52% | Percentage of F2 in the reaction product [13]: 30% | Percentage of Rd in the reaction product [13]: 2% | Percentage of Rg3 in the reaction product [13]: 3% | Percentage of Rh2 in the reaction product [13]: 7% | Percentage of aglycone in the reaction product [13]: 6% | Percentage of C—K in the reaction product (pH 5, 30° C., 18 hours): 16% | Percentage of F2 in the reaction product (pH 5, 30° C., 18 hours): 63% | Percentage of Rb1 in the reaction product (pH 5, 30° C., 18 hours): 1% | Percentage of Rd in the reaction product (pH 5, 30° C., 18 hours): 10% | Percentage of Rh2 in the reaction product (pH 5, 30° C., 18 hours): 5% | Percentage of aglycone in the reaction product (pH 5, 30° C., 18 hours): 5%
